Experiment [1] concerns the target T1, ALK (Homo sapiens, UniProt Q9UM73).
T1 construct: host or cells: baculovirus expression system
Description: ALK Kinase Assay (ELISA/TRF, PLC-γ substrate). Type of experiment: biochemical. The note with it: ALK kinase inhibition, 1 μM ATP; read-out: ALK Potency. The procedure, abridged:
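Time-resolved fluorescence ELISA using Eu-N1 PT66 antibody to detect phosphorylated PLC-γ (coated at 10 μg/mL). Enzyme at 30 ng/ml ALK; 15 min incubation, 37° C.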

The target of experiment [2] is T2, JAK2 (Homo sapiens, UniProt O60674).
T2 construct: host or cells: baculovirus expression system
T2 sequence (O60674 whole entry): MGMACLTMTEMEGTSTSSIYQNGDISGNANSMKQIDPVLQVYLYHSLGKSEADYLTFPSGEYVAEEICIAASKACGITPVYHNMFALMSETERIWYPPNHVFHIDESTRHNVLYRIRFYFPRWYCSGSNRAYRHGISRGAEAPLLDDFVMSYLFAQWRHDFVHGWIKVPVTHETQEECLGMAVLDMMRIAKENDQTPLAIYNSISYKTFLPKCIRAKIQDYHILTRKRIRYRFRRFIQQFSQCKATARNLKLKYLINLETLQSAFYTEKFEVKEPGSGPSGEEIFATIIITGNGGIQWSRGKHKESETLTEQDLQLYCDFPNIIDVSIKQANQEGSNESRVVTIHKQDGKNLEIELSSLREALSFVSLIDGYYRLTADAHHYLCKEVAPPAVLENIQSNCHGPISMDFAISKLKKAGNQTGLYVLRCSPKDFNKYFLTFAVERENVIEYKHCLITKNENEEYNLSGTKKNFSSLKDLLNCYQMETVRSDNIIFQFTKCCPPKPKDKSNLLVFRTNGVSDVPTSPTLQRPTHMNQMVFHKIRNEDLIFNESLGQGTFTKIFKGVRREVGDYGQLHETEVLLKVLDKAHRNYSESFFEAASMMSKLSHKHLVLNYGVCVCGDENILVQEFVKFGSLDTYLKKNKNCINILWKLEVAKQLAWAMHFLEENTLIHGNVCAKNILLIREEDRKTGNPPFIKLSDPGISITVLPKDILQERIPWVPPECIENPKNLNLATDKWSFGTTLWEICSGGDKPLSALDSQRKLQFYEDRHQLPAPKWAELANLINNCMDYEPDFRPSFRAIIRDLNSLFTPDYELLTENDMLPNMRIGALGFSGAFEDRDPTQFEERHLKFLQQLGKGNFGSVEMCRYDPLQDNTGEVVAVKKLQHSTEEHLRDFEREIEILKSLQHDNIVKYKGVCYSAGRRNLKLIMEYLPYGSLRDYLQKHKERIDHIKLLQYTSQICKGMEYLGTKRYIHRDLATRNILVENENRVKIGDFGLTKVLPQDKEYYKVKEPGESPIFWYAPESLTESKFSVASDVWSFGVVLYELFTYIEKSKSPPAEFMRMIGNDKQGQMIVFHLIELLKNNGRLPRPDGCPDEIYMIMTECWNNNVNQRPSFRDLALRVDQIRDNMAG
Description: Recombinant Human JAK2 Kinase Assay (TRF). Type of experiment: biochemical. The following applies: JAK2 kinase inhibition, 0.2 μM ATP; read-out: JAK2 Potency. The procedure, abridged: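 Europium-labelled PY100 antibody reported tyrosine phosphorylation of a Neutravidin-captured biotinyl 15-mer peptide by JAK2 (baculovirus-expressed, 15 ng/ml). Conditions: 20 mM HEPES pH 7.2, 0.2 μM ATP, 1 mM MnCl2, 0.1% BSA, DMSO 2.5% final, 20 min at room temperature.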

The structures appear in SMILES notation.

T1 sequence (Q9UM73 19-1620): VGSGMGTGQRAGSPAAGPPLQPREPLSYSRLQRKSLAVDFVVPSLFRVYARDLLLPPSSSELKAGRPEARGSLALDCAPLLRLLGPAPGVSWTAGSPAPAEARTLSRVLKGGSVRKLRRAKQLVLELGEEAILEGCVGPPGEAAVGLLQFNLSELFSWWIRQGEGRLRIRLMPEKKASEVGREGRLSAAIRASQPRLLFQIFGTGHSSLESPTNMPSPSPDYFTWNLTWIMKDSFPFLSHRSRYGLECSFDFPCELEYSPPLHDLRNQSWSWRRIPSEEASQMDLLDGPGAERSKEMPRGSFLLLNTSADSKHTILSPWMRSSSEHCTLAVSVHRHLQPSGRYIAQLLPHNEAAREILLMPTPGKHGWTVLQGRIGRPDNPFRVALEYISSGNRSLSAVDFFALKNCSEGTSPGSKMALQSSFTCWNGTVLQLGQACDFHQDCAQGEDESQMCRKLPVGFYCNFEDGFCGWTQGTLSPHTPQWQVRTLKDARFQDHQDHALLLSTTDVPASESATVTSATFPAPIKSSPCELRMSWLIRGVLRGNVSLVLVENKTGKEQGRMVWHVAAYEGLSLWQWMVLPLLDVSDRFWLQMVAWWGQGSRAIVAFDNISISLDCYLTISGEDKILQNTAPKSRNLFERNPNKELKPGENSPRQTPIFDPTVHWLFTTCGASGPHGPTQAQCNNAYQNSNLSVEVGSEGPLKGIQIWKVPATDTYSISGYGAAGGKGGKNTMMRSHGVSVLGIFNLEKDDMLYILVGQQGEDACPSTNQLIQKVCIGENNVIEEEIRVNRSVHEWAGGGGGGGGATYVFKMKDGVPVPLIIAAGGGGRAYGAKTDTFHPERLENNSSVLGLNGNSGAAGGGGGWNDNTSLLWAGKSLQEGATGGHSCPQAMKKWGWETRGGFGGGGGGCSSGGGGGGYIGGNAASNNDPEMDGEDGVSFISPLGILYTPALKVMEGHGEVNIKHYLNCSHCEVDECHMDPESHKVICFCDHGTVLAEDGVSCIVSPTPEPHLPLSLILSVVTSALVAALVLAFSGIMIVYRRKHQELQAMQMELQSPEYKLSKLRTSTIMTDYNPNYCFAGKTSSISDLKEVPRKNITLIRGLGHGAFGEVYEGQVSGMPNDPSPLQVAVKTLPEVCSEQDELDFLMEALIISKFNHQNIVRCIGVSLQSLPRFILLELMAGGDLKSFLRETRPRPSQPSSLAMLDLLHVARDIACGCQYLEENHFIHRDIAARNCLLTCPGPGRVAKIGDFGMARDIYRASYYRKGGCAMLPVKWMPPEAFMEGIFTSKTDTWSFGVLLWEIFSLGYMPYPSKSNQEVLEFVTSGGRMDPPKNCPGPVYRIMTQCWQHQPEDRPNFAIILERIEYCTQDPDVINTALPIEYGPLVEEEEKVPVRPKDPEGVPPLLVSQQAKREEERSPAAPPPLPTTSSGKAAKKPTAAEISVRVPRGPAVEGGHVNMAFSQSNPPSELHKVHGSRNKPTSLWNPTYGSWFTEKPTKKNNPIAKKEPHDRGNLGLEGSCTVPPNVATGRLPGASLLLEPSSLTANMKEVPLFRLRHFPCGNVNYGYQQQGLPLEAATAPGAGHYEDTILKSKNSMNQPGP

In the case of `COc1cc2c(cc1Nc1ncc3ccc(-c4cccc(S(=O)(=O)NC(C)(C)C)c4)n3n1)CCN(C[C@@H](C)O)CC2` [Example 700], the IC50 in experiment [1] was under 0.1 µM; in experiment [2] it was 0.1 to 1 µM.
The like results for `COc1cc2c(cc1Nc1ncc3ccc(-c4cccc(S(=O)(=O)NC(C)(C)C)c4)n3n1)CCN(C[C@H](C)O)CC2` [Example 701] were, in that order, under 0.1 µM and 0.1 to 1 µM.
The like results for `COc1cc(C2CCN(CCO)CC2)ccc1Nc1ncc2ccc(-c3cccc4c3OCC4)n2n1` [Example 702, 2-(4-{4-[7-(2,3-Dihydro-benzofuran-7-yl)-pyrrolo[2,1-f][1,2,4]triazin-2-ylamino]-3-methoxy-phenyl}-piperidin-1-yl)-ethanol] were, in that order, under 0.1 µM and 0.1 to 1 µM.
`COc1cc(C2CCN(CC(N)=O)CC2)ccc1Nc1ncc2ccc(-c3cccc4c3OCC4)n2n1` [Example 703, 2-(4-{4-[7-(2,3-Dihydro-benzofuran-7-yl)-pyrrolo[2,1-f][1,2,4]triazin-2-ylamino]-3-methoxy-phenyl}-piperidin-1-yl)-acetamide]: the IC50 in experiment [1] was under 0.1 µM; in experiment [2], 0.1 to 1 µM.
The like results for `COc1cc2c(cc1Nc1ncc3ccc(-c4cccc5c4OCC5)n3n1)CCN(CCO)CC2` [Example 704, 2-{7-[7-(2,3-Dihydro-benzofuran-7-yl)-pyrrolo[2,1-f][1,2,4]triazin-2-ylamino]-8-methoxy-1,2,4,5-tetrahydro-3-benzazepin-3-yl}-ethanol] were, in that order, under 0.1 µM and under 0.1 µM.
Consider `COc1cc(C2CCN(C)CC2)ccc1Nc1ncc2ccc(-c3cccc4c3OCC4)n2n1` [Example 705, [7-(2,3-Dihydro-benzofuran-7-yl)-pyrrolo[2,1-f][1,2,4]triazin-2-yl]-[2-methoxy-4-(1-methyl-piperidin-4-yl)-phenyl]-amine], for which the IC50 in experiment [1] was under 0.1 µM; in experiment [2], 0.1 to 1 µM.
In the same order, the values of `NC(=O)CN1CCC(c2ccc(Nc3ncc4ccc(-c5cccc6c5OCC6)n4n3)cc2)CC1` [Example 706, 2-(4-{4-[7-(2,3-Dihydro-benzofuran-7-yl)-pyrrolo[2,1-f][1,2,4]triazin-2-ylamino]-phenyl}-piperidin-1-yl)-acetamide] are under 0.1 µM and under 0.1 µM.
In the same order, the values of `COc1cc2c(cc1Nc1ncc3ccc(-c4cccc5c4OCC5)n3n1)CCCC(N1CCN(CCO)CC1)C2` (centres unmarked) [Example 707, 2-(4-{2-[7-(2,3-Dihydro-benzofuran-7-yl)-pyrrolo[2,1-f][1,2,4]triazin-2-ylamino]-3-methoxy-6,7,8,9-tetrahydro-5H-benzocyclohepten-6-yl}-piperazin-1-yl)-ethanol] are under 0.1 µM and 0.1 to 1 µM.
Consider `COc1cc2c(cc1Nc1ncc3ccc(-c4cccc5c4OCC5)n3n1)CCN(CC(N)=O)CC2` [Example 708, 2-{7-[7-(2,3-Dihydro-benzofuran-7-yl)-pyrrolo[2,1-f][1,2,4]triazin-2-ylamino]-8-methoxy-1,2,4,5-tetrahydro-3-benzazepin-3-yl}-acetamide], for which the values for the IC50 in experiment [1] and in experiment [2] were under 0.1 µM and 0.1 to 1 µM, respectively.
The like results for `COc1cc2c(cc1Nc1ncc3ccc(-c4cccc5c4OCC5)n3n1)CCNCC2` [Example 709, [7-(2,3-Dihydro-benzofuran-7-yl)-pyrrolo[2,1-f][1,2,4]triazin-2-yl]-(8-methoxy-2,3,4,5-tetrahydro-1H-3-benzazepin-7-yl)-amine] were, in that order, under 0.1 µM and under 0.1 µM.
The like results for `c1cc2c(c(-c3ccc4cnc(Nc5cnc6c(N7CCNCC7)cccc6c5)nn34)c1)OCC2` [Example 710, [7-(2,3-Dihydro-benzofuran-7-yl)-pyrrolo[2,1-f][1,2,4]triazin-2-yl]-(8-piperazin-1-yl-quinolin-3-yl)-amine] were, in that order, over 10 µM and 1 to 10 µM.
As for `COc1cc(C2CCNCC2)ccc1Nc1ncc2ccc(-c3cccc4c3NC(=O)C4)n2n1` [Example 714, 7-[2-(2-Methoxy-4-piperidin-4-ylphenylamino)pyrrolo[2,1-f][1,2,4]triazin-7-yl]-1,3-dihydro-indol-2-one], the IC50 in experiment [1] and in experiment [2] was 1 to 10 µM throughout.
Take `c1cc2c(c(-c3ccc4cnc(Nc5cnn(C6CCNCC6)c5)nn34)c1)OCC2` [Example 715, [7-(2,3-Dihydrobenzofuran-7-yl)pyrrolo[2,1-f][1,2,4]triazin-2-yl]-(1-piperidin-4-yl-1H-pyrazol-4-yl)amine]: the results for the IC50 in experiment [1] and in experiment [2] were 0.1 to 1 µM and under 0.1 µM, respectively.
In the same order, the values of `COc1ccccc1-c1ccc2cnc(Nc3cnn(C4CCNCC4)c3)nn12` [Example 716, 4-{4-[7-(2-Methoxy-phenyl)-pyrrolo[2,1-f][1,2,4]triazin-2-ylamino]-pyrazol-1-yl}-piperidine] are under 0.1 µM and under 0.1 µM.
In the same order, the values of `CN(c1ccccc1-c1ccc2cnc(Nc3cnn(C4CCNCC4)c3)nn12)S(C)(=O)=O` [Example 717, N-Methyl-N-{2-[2-(1-piperidin-4-yl-1H-pyrazol-4-ylamino)-pyrrolo[2,1-f][1,2,4]triazin-7-yl]-phenyl}-methanesulfonamide] are 0.1 to 1 µM and under 0.1 µM.
The like results for `COc1cc(C2CCNCC2O)ccc1Nc1ncc2ccc(-c3cccc4c3OCC4)n2n1` (centres unmarked) [Example 718, 4-{4-[7-(2,3-Dihydro-benzofuran-7-yl)-pyrrolo[2,1-f][1,2,4]triazin-2-ylamino]-3-methoxy-phenyl}-piperidin-3-ol] were, in that order, under 0.1 µM and under 0.1 µM.
Take `COc1cc(C2CCNCC2)ccc1Nc1ncc2ccc(N3CC(c4ccccc4)CC3=O)n2n1` (centres unmarked) [Example 719, 1-[2-(2-Methoxy-4-piperidin-4-yl-phenylamino)-pyrrolo[2,1-f][1,2,4]triazin-7-yl]-4-phenyl-pyrrolidin-2-one]: the IC50 in experiment [1] is 0.1 to 1 µM; in experiment [2], 1 to 10 µM.
As to `COc1ccccc1-c1ccn2nc(NCc3cccc(N(C)C)c3)ncc12` [Example 721, (3-Dimethylamino-benzyl)-[5-(2-methoxy-phenyl)-pyrrolo[2,1-f][1,2,4]triazin-2-yl]-amine], the IC50 in experiment [1] was over 10 µM; in experiment [2], 1 to 10 µM.
For `COc1ccccc1-c1ccn2nc(Nc3ccc4c(c3)CN(C)CC4)ncc12` [Example 722, [5-(2-Methoxy-phenyl)-pyrrolo[2,1-f][1,2,4]triazin-2-yl]-(2-methyl-1,2,3,4-tetrahydro-isoquinolin-7-yl)-amine], the IC50 in experiment [1] is over 10 µM; in experiment [2], 1 to 10 µM.
The like results for `CCN1CCN(C(=O)c2ccc(Nc3ncc4c(-c5ccccc5OC)ccn4n3)cc2)CC1` [Example 723, (4-Ethyl-piperazin-1-yl)-{4-[5-(2-methoxy-phenyl)-pyrrolo[2,1-f][1,2,4]triazin-2-ylamino]-phenyl}-methanone] were, in that order, over 10 µM and 0.1 to 1 µM.
The like results for `COc1ccc(-c2ccn3nc(Nc4ccc(N5CCN(C)CC5)cc4)ncc23)cc1` [Example 724, [5-(4-Methoxy-phenyl)-pyrrolo[2,1-f][1,2,4]triazin-2-yl]-[4-(4-methyl-piperazin-1-yl)-phenyl]-amine] were, in that order, over 10 µM and over 10 µM.
The like results for `COc1cccc(-c2ccn3nc(Nc4ccc(N5CCN(C)CC5)cc4)ncc23)c1` [Example 725, [5-(3-Methoxy-phenyl)-pyrrolo[2,1-f][1,2,4]triazin-2-yl]-[4-(4-methyl-piperazin-1-yl)-phenyl]-amine] were, in that order, over 10 µM and over 10 µM.
On to `CN1CCN(c2ccc(Nc3ncc4c(-c5ccc(F)cc5)ccn4n3)cc2)CC1` [Example 726, [5-(4-Fluoro-phenyl)-pyrrolo[2,1-f][1,2,4]triazin-2-yl]-[4-(4-methyl-piperazin-1-yl)-phenyl]-amine], for which the results for the IC50 in experiment [1] and in experiment [2] were 1 to 10 µM and over 10 µM, respectively.
The like results for `CCN1CCN(C(=O)c2ccc(Nc3ncc4c(-c5ccc(F)cc5)ccn4n3)cc2)CC1` [Example 727, (4-Ethyl-piperazin-1-yl)-{4-[5-(4-fluoro-phenyl)-pyrrolo[2,1-f][1,2,4]triazin-2-ylamino]-phenyl}-methanone] were, in that order, over 10 µM and over 10 µM.
Regarding `CN1CCc2ccc(Nc3ncc4c(-c5ccc(F)cc5)ccn4n3)cc2C1` [Example 728, [5-(4-Fluoro-phenyl)-pyrrolo[2,1-f][1,2,4]triazin-2-yl]-(2-methyl-1,2,3,4-tetrahydro-isoquinolin-7-yl)-amine], the IC50 in experiment [1] is over 10 µM; in experiment [2] it was 1 to 10 µM.
On to `CN(C)c1cccc(CNc2ncc3c(-c4ccc(F)cc4)ccn3n2)c1` [Example 729, (3-Dimethylamino-benzyl)-[5-(4-fluoro-phenyl)-pyrrolo[2,1-f][1,2,4]triazin-2-yl]-amine], for which the IC50 in experiment [1] is over 10 µM; in experiment [2], 1 to 10 µM.
The like results for `CN1CCN(c2ccc(Nc3ncc4c(-c5cccc(F)c5)ccn4n3)cc2)CC1` [Example 730, [5-(3-Fluoro-phenyl)-pyrrolo[2,1-f][1,2,4]triazin-2-yl]-[4-(4-methyl-piperazin-1-yl)-phenyl]-amine] were, in that order, over 10 µM and 1 to 10 µM.
Turning to `COc1cc(C2(O)CCN(C(=O)OC(C)(C)C)CC2)ccc1Nc1ncc2ccc(-c3ccccc3N(C)S(C)(=O)=O)n2n1` [Example 741, 4-Hydroxy-4-(4-{7-[2-(methanesulfonyl-methyl-amino)-phenyl]-pyrrolo[2,1-f][1,2,4]triazin-2-ylamino}-3-methoxy-phenyl)-piperidine-1-carboxylic acid tert-butyl ester], the IC50 in experiment [1] and in experiment [2] was 0.1 to 1 µM in each case.

Values taken from patent US8471005B2 (Cephalon, Inc., priority 2008, dated 2013).
